The target in the assay is full length NS3/4a (Hepatitis C virus genotype 1b (isolate BK) (HCV), UniProt P26663). Briefly: NS3 Protease Assay (Example A), FRET-based. Format: biochemical. Conditions: for IC50: HCV NS3 protease assay, full length NS3/4a, read-out: Assay A IC50 (μM) average; for pIC50: read-out: IC50 against the protease activity of the full length NS3/4a. The method, then: The HCV NS3 protease functions have been extensively studied and are considered as potential targets for antiviral therapy: see for example the many references listed in the introductory section of this application. Therefore, the activity of the compounds of the invention as anti-HCV agents was assessed using a full length HCV NS3 protease.
The protease activity of the full length NS3/4a was measured using a FRET-based assay utilizing a peptide substrate derived from the NS4A/B cleavage site (Anaspec) and labelled at one end with a quencher (QXL520) and at the other with a fluorophore (5-FAMsp). NS3/4a (produced in-house by literature methods) was incubated with test compounds and peptide substrate in 50 mM Tris pH8, 20 mM DTT, 1% CHAPS, 10% glycerol and 5% DMSO. The reaction was followed by monitoring the change in fluorescence on a Molecular Devices Gemini plate reader for 30 minutes at room temperature. Initial rates were calculated from the progress curves using SoftMax Pro (Molecular Devices). IC50 values were then calculated from replicate curves using Prism GraphPad software.

pIC50: −log10 of the molar value. Like-named read-outs stand apart in the source and are kept apart here. Where only a bound is given, the exact number is not on record here.

Chain of full length NS3/4a (P26663 1027-1657): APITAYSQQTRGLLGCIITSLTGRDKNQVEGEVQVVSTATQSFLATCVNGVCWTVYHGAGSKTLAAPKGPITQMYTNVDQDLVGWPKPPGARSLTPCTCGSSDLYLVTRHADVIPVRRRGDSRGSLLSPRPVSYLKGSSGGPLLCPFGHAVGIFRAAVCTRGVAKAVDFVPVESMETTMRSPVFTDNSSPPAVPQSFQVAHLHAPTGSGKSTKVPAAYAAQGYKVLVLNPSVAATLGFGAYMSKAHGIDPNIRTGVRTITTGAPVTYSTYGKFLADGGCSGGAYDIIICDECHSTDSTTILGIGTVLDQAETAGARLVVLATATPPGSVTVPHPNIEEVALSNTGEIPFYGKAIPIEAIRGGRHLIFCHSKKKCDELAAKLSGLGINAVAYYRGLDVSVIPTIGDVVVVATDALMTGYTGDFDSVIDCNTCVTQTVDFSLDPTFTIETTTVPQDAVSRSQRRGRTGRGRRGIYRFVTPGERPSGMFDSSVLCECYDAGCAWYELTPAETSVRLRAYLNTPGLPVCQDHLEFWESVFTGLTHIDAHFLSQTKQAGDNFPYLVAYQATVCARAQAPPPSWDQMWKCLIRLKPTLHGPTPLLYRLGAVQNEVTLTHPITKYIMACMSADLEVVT

For the compound `N[C@@H](c1ccc(Cl)c(C(=O)c2ccc(F)cc2)c1F)C1CC1` [Example 27, (R)-{4-chloro-2-fluoro-3-[(4-fluorophenyl)carbonyl]phenyl}(cyclopropyl)methanamine], the concentration for half-maximal inhibition (IC50) worked out at 0.22 µM and the pIC50 is more than 6.00. As for `CC[C@H](NC(=N)N)c1ccc(Cl)c(C(=O)c2cccnc2)c1F` [Example 302], the half-inhibitory concentration (IC50) was determined as 1.3 µM and the pIC50 was 5.30 to 6.00.

For `COc1ccc([C@H](N)C2CC2)c(F)c1C(=O)c1cccc(F)c1` [Example 201, (R)-cyclopropyl({2-fluoro-3-[(3-fluorophenyl)carbonyl]-4-methoxyphenyl})methanamine], the IC50 was determined as 3 µM and the pIC50 is 5.30 to 6.00.

Turning to `CC[C@@H](NC)c1ccc(Cl)c(C(=O)c2ccc(N)nc2)c1F` [Example 307, 5-({6-chloro-2-fluoro-3-[(1R)-1-(methylamino)propyl]-phenyl}carbonyl)pyridin-2-amine], the IC50 stood at 0.34 µM and the pIC50 was more than 6.00. As to `CC[C@@H](N)c1ccc(Cl)c(C(=O)c2cccc(F)c2)c1F` [Example 7, (1R)-1-{4-chloro-2-fluoro-3-[(3-fluorophenyl)carbonyl]-phenyl}propan-1-amine], the IC50 was found to be 0.38 µM and the pIC50 was more than 6.00.

Regarding `[2H]C([2H])([2H])C([2H])([2H])[C@@H](N)c1ccc(Cl)c(C(=O)c2ccccc2)c1F` [Example 23, (1R)-1-(3-benzoyl-4-chloro-2-fluorophenyl)(2,2,3,3,3-D)propan-1-amine], the IC50 came to 0.11 µM and the pIC50 is more than 6.00. Consider `CC[C@@H](N)c1ccc(Cl)c(C(=O)c2ccc(Cl)nc2)c1F` [Example 29, (1R)-1-{4-chloro-3-[(6-chloropyridin-3-yl)carbonyl]-2-fluorophenyl}propan-1-amine], for which the IC50 turned out to be 0.5 µM and the pIC50 is more than 6.00.

As for `CC[C@@H](N[C@H](C)CC(N)=O)c1ccc(OC)c(C(=O)c2ccccc2)c1F` [Example 153, (3R)-3-{[(1R)-1-(3-benzoyl-2-fluoro-4-methoxyphenyl)propyl]amino}butanamide], the IC50 came to 0.49 µM. For the compound `CC[C@@H](NCc1cnc[nH]1)c1ccc(Cl)c(C(=O)c2cccnc2)c1F` [Example 288, [(1R)-1-{4-chloro-2-fluoro-3-[(pyridin-3-yl)carbonyl]phenyl}propyl](1H-imidazol-5-ylmethyl)amine], the IC50 is 1.4 µM and the pIC50 is 5.30 to 6.00. For the compound `CC[C@@H](N[C@H](C)CC(N)=O)c1ccc(Cl)c(C(=O)c2ccc(F)cc2)c1F` [Example 98, (3R)-3-{[(1R)-1-{4-chloro-2-fluoro-3-[(4-fluorophenyl)-carbonyl]phenyl}propyl]amino}butanamide], the 50% inhibitory concentration (IC50) was 0.6 µM. With `CC[C@@H](N)c1ccc(Cl)c(C(=O)c2ccc(F)cc2)c1F` [Example 8, (1R)-1-{4-chloro-2-fluoro-3-[(4-fluorophenyl)carbonyl]-phenyl}propan-1-amine], the IC50 is 0.19 µM and the pIC50 is more than 6.00.

As to `CC[C@@H](N[C@H](C)CC(N)=O)c1ccc(Cl)c(C(=O)c2ccc3c(c2)OCC(=O)N3)c1F` [Example 248, (3R)-3-{[(1R)-1-{4-chloro-2-fluoro-3-[(3-oxo-3,4-dihydro-2H-1,4-benzoxazin-7-I)carbonyl]phenyl}propyl]amino}butanamide], the IC50 worked out at 2 µM and the pIC50 is 5.30 to 6.00.

Turning to `CC[C@@H](N)c1ccc(Cl)c(C(=O)c2nccs2)c1F` [Example 20, (1R)-1-{4-chloro-2-fluoro-3-[(1,3-thiazol-2-yl)carbonyl]phenyl}propan-1-amine], the IC50 was found to be 0.82 µM and the pIC50 is more than 6.00. `CC[C@@H](N[C@H](C)CC(N)=O)c1ccc(Cl)c(C(=O)c2ccc(CO)cc2)c1F` [Example 187, (3R)-3-{[(1R)-1-(4-chloro-2-fluoro-3-{[4-(hydroxymethyl)-phenyl]-carbonyl}phenyl)-propyl]amino}butanamide]: the half-maximal inhibitory concentration (IC50) is 0.66 µM.

In the case of `CC[C@@H](N)c1ccc(Cl)c(C(=O)c2ccc([N+](=O)[O-])c(C)c2)c1F` [Example 64, (1R)-1-{4-chloro-2-fluoro-3-[(3-methyl-4-nitrophenyl)carbonyl]phenyl}propan-1-amine], where the note is “@ 0.1 uM”, at 0.1 µM the inhibition was 44%.

Regarding `CC[C@H](NC(=O)C1=CCNC1)c1ccc(Cl)c(C(=O)c2cccnc2)c1F` [Example 286, N-[(1S)-1-{4-chloro-2-fluoro-3-[(pyridin-3-yl)carbonyl]phenyl}propyl]-2,5-dihydro-1H-pyrrole-3-carboxamide], the half-inhibitory concentration (IC50) turned out to be 0.13 µM and the pIC50 was more than 6.00. For `[2H]C([2H])([2H])C([2H])([2H])[C@@H](N[C@H](C)CC(N)=O)c1ccc(Cl)c(C(=O)c2ccc(N)c(Cl)c2)c1F` [Example 220, (3R)-3-{[(1R)-1-{3-[(4-amino-3-chlorophenyl)carbonyl]-4-chloro-2-fluorophenyl}(2,2,3,3,3-deutero)propyl]amino} butanamide], the IC50 is 0.26 µM. On to `CC[C@@H](N[C@@H](C)CC(N)=O)c1ccc(Cl)c(C(=O)c2ccc(N(C)C)nc2)c1F` [Example 136, (3S)-3-{[(1R)-1-(4-chloro-3-{[6-(dimethylamino)pyridin-3-yl]carbonyl}-2-fluorophenyl)propyl]-amino}butanamide], for which the IC50 was 0.83 µM and the pIC50 is more than 6.00. `CC[C@@H](N[C@H](C)CC(N)=O)c1ccc(OC)c(C(=O)c2cccc(F)c2)c1F` [Example 211, (3R)-3-{[(1R)-1-{2-fluoro-3-[(3-fluorophenyl)carbonyl]-4-methoxyphenyl}propyl]amino}butanamide]: the pIC50 is 5.30 to 6.00. In addition, 1 µM produced 47% inhibition (@ 1 uM). For `[2H]C([2H])([2H])C([2H])([2H])[C@@H](N[C@H](C)CC(N)=O)c1ccc(Cl)c(C(=O)c2ccc3c(c2)OCC(=O)N3)c1F` [Example 124, (3R)-3-{[(1R)-1-{4-chloro-2-fluoro-3-[(3-oxo-3,4-dihydro-2H-1,4-benzoxazin-7-yl)carbonyl]phenyl} (2,2,3,3,3-deutero)propyl]amino}-butanamide], the IC50 is 1 µM and the pIC50 was 5.30 to 6.00. Take `CC[C@@H](N[C@H](CC(N)=O)C(C)C)c1ccc(Cl)c(C(=O)c2ccc(N)nc2)c1F` [Example 219, (3R)-3-{[(1R)-1-{3-[(6-aminopyridin-3-yl)carbonyI]-4-chloro-2-fluorophenyl}propyl]amino}-4-methylpentanamide]: the IC50 is 7.5 µM. The pIC50 (stated as IC50 less than 30 μM or at least 40% inhibition at a concentration of 100 μM) is more than 4.52.

With `CC[C@@H](N)c1ccc(Cl)c(C(=O)c2ccc3c(c2)OCC(=O)N3)c1F` [Example 60, 7-({3-[(1R)-1-Aminopropyl]-6-chloro-2-fluorophenyl}-carbonyl)-3,4-dihydro-2H-1,4-benzoxazin-3-one], the IC50 is 0.55 µM and the pIC50 is more than 6.00. As to `CC[C@@H](N[C@H](C)CC(N)=O)c1ccc(Cl)c(C(=O)c2ccc(-n3cccn3)nc2)c1F` [Example 140, (3R)-3-{[(1R)-1-(4-chloro-2-fluoro-3-{[6-(1H-pyrazol-1-yl)pyridin-3-yl]carbonyl}-phenyl)-propyl]amino}-butanamide], the IC50 is 3.9 µM and the pIC50 is 5.30 to 6.00.

For the compound `CC[C@@H](N[C@H](C)CC(N)=O)c1ccc(Cl)c(C(=O)c2ccc(OC)c(C#N)c2)c1F` [Example 217, (3R)-3-{[(1R)-1-{4-chloro-3-[(3-cyano-4-methoxyphenyl)carbonyl]-2-fluorophenyl}propyl]amino}butanamide], the inhibition at 30 µM (@ 30 uM) came to 38%. On to `[2H]C([2H])([2H])C([2H])([2H])[C@H](N)c1ccc(Cl)c(C(=O)c2ccccc2)c1F` [Example 24, (1S)-1-(3-benzoyl-4-chloro-2-fluorophenyl)(2,2,3,3,3-D)propan-1-amine], for which the 50% inhibitory concentration (IC50) was found to be 0.075 µM and the pIC50 is more than 6.00.

On to `CC[C@@H](N)c1ccc(Cl)c(C(=O)c2ccc(N)nc2)c1F` [Example 1, 5-({3-[(1R)-1-aminopropyl]-6-chloro-2-fluorophenyl}carbonyl)-pyridin-2-amine], for which the concentration for half-maximal inhibition (IC50) came out at 0.089 µM and the pIC50 is more than 6.00. For `CC[C@@H](N)c1ccc(Cl)c(C(=O)c2ccc(-n3cccn3)nc2)c1F` [Example 37, (1R)-1-(4-chloro-2-fluoro-3-{[6-(1H-pyrazol-1-yl)pyridin-3-yl]carbonyl}phenyl)propan-1-amine], the IC50 turned out to be 0.49 µM and the pIC50 is more than 6.00.

As for `CC[C@@H](N)c1ccc(Cl)c(C(=O)c2cccc(CO)c2)c1F` [Example 54, [3-({3-[(1R)-1-aminopropyl]-6-chloro-2-fluorophenyl}carbonyl)phenyl]methanol], the 50% inhibitory concentration (IC50) stood at 0.14 µM and the pIC50 is more than 6.00. As to `CC[C@@H](N)c1ccc(OC)c(C(=O)c2ccc(F)cc2)c1F` [Example 191, (1R)-1-{2-fluoro-3-[(4-fluorophenyl)carbonyl]-4-methoxyphenyl}-propan-1-amine], the IC50 came to 1.1 µM and the pIC50 was 5.30 to 6.00. As for `CC[C@@H](N)c1ccc(Cl)c(C(=O)c2ccncn2)c1F` [Example 10, (1R)-1-{4-chloro-2-fluoro-3-[(pyrimidin-4-yl)carbonyl]phenyl}-propan-1-amine], the half-inhibitory concentration (IC50) came out at 3.5 µM and the pIC50 was 5.30 to 6.00.

Values taken from patent US9145354B2, “Pharmaceutical compounds” (priority 2011, dated 2015).
